Measurements: patent US20140315975A1, “APOPTOSIS-INDUCING AGENT” (NITTO DENKO CORPORATION, priority 2011, published 2014)

Legend:
Type in all cases: cell-based
[1] = system: K-RAS mutation-positive colon carcinoma cell line M7609; assay: Total cell count after siRNA transfection (hemocytometer); settings: after culturing for 4 days, versus no suppression (FIG. 1b)
Method: K-RAS mutation-positive colon carcinoma cell line M7609 was cultured in 10% fetal bovine serum (FBS)-containing RPMI-1640 medium at 37° C. under an atmosphere containing 5% CO2. Furthermore, 100 U/mL penicillin and 100 μg/mL streptomycin were added as antibiotics to the medium.
On the day before transfection, M7609 cells were plated on a 100 mm plastic tissue culture dish using 10% FBS-containing RPMI-1640 medium containing no antibiotic so as to give 1×10^6 cells/10 mL. 600 pmol of GST-π siRNA (SEQ ID No: 1: […], siRNA ID#2385, Ambion) was added to 1 mL of Opti-MEM I Reduced Serum Medium (GIBCO) and mixed gently. […] On the 1st, 2nd, 3rd, and 4th days after transfection with GST-π siRNA, the number of cells was counted, and knockdown of GST-π was examined. Knockdown of GST-π was analyzed by a western blot method as described below.
Western blot analysis of GST-π knockdown was carried out using cells harvested at above-mentioned each point of time after transfection with GST-π siRNA. […] The cell extract thus obtained was subjected to quantitative protein analysis using a Micro BCA Protein Assay Kit (Thermo SCIENTIFIC) (GST-π siRNA transfectant: 4.35 μg/μL, Scramble siRNA transfectant: 4.56 μg/μL). […] A reaction with a chemiluminescent substrate was then carried out at room temperature for 1 min., and then this chemiluminescence was detected using an X-ray film. […]

M7609 cells [2] = assay: Autophagy induction by electron microscope examination; settings: 2 days after transfection, electron microscope (FIG. 7)
Method: On the 1st day after siRNA transfection in Example 1 (2), the cells were plated on an 8-well culture slide for tissue culture so as to give 0.4×10^5 cells/0.5 mL. Fixation was carried out using 2.5% glutaraldehyde in 0.1 M cacodylic acid buffer (pH 7.4) for hour, and after rinsing with 0.1 M cacodylic acid buffer post-fixation was carried out using 1% OsO4 and 1.5% potassium ferrocyanide for 2 hours. After dehydration was carried out three times with ethanol for 10 min., embedding in an epoxy resin (TAAB Laboratories Equipment) was carried out. An ultrathin section was prepared using a diamond knife, electron staining was carried out using uranyl acetate and lead citrate, and the section was examined using an electron microscope (Hitachi Transmission Electron Microscope H-7500, Hitachi High-Technologies Corporation).

Raf-1 = assay: Immunoprecipitation of Raf-1 and anti-ubiquitin western blot; settings: M7609 cells
Method: In the same way as for Example 1 (3), on the 2nd day after siRNA transfection culturing was carried out for 16 hours in a serum-free medium, and a cell extract was collected. The cell extract thus obtained was subjected to quantitative protein analysis using a Micro BCA Protein Assay Kit (Scramble siRNA: 8.88 μg/μL, GST-π siRNA: […]). 0.5 μg of the cell extract was mixed with anti-Raf-1 antibody conjugated to Dynabeads Protein G (Invitrogen), incubation was carried out at 4° C. for 2 hours while gently mixing in a shaker to thus isolate Raf-1 protein, and then a western blot analysis was carried out in the same way as for Example 1 (3) using an anti-ubiquitin antibody (Santa Cruz). Phosphorylation modification of Ser621, which is involved in inhibition of Raf-1 proteasome degradation, was investigated in the same manner using an anti-p-Raf-1 (Ser621) antibody (MILLIPORE).

M7609 cells [3] = assay: Autophagy induction by LC3 immunofluorescence staining; settings: 1 to 4 days after transfection (FIG. 10)
Method: Induction of autophagy by GST-π knockdown was analyzed by immunofluorescence staining with LC3, which is an autophagy-specific marker protein. GST-π knockdown cells obtained by the procedure of Example 1 (2) were plated on a cover slip placed in a 35 mm plastic tissue culture dish so as to give 1×10^5 cells/2 mL. After the medium was aspirated, 4% paraformaldehyde in PBS was added, and incubation was carried out at room temperature for 10 min., thus fixing the cells. Permeabilization of the cells was carried out using 0.5% Triton X-100 in PBS on ice for 5 min. After washing with cold PBS for 10 min., a reaction with anti-LC3B antibody (Invitrogen) diluted with 1% BSA containing PBS was carried out within a humidity chamber at 37° C. for 1 hour. A secondary antibody reaction was carried out using Alexa Fluor488-labeled rabbit antibody (Invitrogen) at 37° C. for 1 hour. Mounting on a slide glass was carried out using Prolong Gold antifade reagent with DAPI, and incubation was carried out at 4° C. for 16 hours. Washing after the antibody reaction was carried out three times using PBS at 37° C. for 5 min. Autophagy-positive cells at the time of examination with a fluorescence microscope were defined as cells having a spot-like LC3 signal present in the cytoplasm.

## GST-π siRNA: GST-π siRNA (SEQ ID No: 1: GGGAGGCAAGACCUUCAUUTT, siRNA ID#2385, Ambion) (chemistry not given here)
[1]
  number of cells: markedly less
M7609 cells [2]
  autophagosome formation: autophagosome was formed
Raf-1; 2nd day after transfection, compared with Scramble siRNA (FIG. 3)
  ubiquitination of Raf-1: enhanced
Raf-1; Raf-1 immunoprecipitate (FIG. 3)
  expression of Raf protein and Ser621 phosphorylated Raf protein (p-Raf-1 (S621)): decreased slightly
M7609 cells [3]
  proportion of autophagy-positive cells (spot-like LC3 signal per 500 cells): increased rapidly after treatment, peaked on 2nd day, and then decreased
